In ChEMBL document CHEMBL5715954, “Silencing c-Myc translation as a therapeutic strategy through targeting PI3Kδ and CK1ε in hematological malignancies” (Blood, 2017) one finds Activity data, which are given here for three molecules.

Common to all, as to design: scale not given: the % may be the effect or the level left
Assay [1] has as its target T1, Serine/threonine-protein kinase Nek2 (Homo sapiens) (UniProt P51955).
T1 sequence (whole entry): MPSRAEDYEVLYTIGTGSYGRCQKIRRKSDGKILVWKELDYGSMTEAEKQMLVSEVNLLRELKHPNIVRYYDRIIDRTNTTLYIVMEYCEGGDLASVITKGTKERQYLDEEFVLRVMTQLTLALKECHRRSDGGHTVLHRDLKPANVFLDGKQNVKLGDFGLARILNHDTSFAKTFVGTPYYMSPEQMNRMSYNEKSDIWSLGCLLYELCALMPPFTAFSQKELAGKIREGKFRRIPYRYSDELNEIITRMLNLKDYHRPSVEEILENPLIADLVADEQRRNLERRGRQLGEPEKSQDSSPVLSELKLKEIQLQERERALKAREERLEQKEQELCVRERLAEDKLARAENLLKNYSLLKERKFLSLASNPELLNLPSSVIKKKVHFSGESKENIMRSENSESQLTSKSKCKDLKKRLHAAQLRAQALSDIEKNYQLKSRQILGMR
The assay is described as follows: Inhibition of human NEK2 assessed as enzyme activity at 1 uM using myelin basic protein as substrate preincubated for 20 mins followed by [gamma-33P]-ATP addition and measured after 120 mins by radiometric Hot-SpotSM Kinase assay relative to control.

Assay [2] has as its target T2, cGMP-dependent protein kinase 1 (Homo sapiens) (UniProt Q13976).
T2 sequence (whole entry): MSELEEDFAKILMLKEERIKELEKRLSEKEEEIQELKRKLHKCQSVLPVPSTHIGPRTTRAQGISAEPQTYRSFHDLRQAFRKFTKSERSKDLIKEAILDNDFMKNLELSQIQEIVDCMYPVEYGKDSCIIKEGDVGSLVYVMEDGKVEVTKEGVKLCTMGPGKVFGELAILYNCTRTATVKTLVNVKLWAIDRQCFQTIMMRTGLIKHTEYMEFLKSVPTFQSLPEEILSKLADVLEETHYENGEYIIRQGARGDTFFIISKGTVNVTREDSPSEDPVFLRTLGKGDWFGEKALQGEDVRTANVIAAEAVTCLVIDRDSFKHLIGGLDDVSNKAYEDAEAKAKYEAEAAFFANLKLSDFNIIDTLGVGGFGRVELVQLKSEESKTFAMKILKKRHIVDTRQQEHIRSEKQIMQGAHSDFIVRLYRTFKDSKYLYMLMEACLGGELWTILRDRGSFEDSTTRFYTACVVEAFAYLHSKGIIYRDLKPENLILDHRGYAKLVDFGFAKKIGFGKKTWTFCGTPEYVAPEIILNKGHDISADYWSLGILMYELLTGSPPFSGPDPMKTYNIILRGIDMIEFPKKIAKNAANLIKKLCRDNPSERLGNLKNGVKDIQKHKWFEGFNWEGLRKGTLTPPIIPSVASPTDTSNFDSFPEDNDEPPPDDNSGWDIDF
The assay is described as follows: Inhibition of human PKG1b assessed as enzyme activity at 1 uM using LRRASLG as substrate preincubated for 20 mins followed by [gamma-33P]-ATP addition and measured after 120 mins by radiometric Hot-SpotSM Kinase assay relative to control.

In assay [3] the target is CDK2/Cyclin O (Homo sapiens) (UniProt P24941+P22674). The assay is described as follows: Inhibition of human CDK2/cyclin O assessed as enzyme activity at 1 uM using Histone H1 as substrate preincubated for 20 mins followed by [gamma-33P]-ATP addition and measured after 120 mins by radiometric Hot-SpotSM Kinase assay relative to control. It is filed as protein-complex assay.

Assay [4] deals with CDK6/cyclin D3 (Homo sapiens) (UniProt P30281+Q00534). The experiment in a line: Inhibition of human CDK6/cyclin D3 assessed as enzyme activity at 1 uM using RB Protein as substrate preincubated for 20 mins followed by [gamma-33P]-ATP addition and measured after 120 mins by radiometric Hot-SpotSM Kinase assay relative to control. It is filed as protein-complex assay.
Assay [5] deals with Dual specificity protein kinase CLK4 (Homo sapiens) (UniProt Q9HAZ1). The assay is described as follows: Inhibition of human CLK4 assessed as enzyme activity at 1 uM using myelin basic protein as substrate preincubated for 20 mins followed by [gamma-33P]-ATP addition and measured after 120 mins by radiometric Hot-SpotSM Kinase assay relative to control.
Chain of Dual specificity protein kinase CLK4 (Homo sapiens) (Q9HAZ1 whole entry, looked up): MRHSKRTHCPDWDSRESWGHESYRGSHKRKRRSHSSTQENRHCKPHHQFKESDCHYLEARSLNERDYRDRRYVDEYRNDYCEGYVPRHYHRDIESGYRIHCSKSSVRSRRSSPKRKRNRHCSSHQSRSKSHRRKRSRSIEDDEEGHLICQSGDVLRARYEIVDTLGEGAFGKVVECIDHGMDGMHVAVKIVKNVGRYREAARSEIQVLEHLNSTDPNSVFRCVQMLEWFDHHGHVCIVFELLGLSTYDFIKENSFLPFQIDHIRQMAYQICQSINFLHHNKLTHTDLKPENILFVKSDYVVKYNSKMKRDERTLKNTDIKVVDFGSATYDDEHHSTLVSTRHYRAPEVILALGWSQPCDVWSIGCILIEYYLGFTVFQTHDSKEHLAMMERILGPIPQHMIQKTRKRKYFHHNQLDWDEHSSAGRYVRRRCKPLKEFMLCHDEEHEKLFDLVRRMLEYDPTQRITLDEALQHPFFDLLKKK
The target of assay [6] is T3, Serine/threonine-protein kinase NLK (Homo sapiens) (UniProt Q9UBE8).
T3 sequence (whole entry): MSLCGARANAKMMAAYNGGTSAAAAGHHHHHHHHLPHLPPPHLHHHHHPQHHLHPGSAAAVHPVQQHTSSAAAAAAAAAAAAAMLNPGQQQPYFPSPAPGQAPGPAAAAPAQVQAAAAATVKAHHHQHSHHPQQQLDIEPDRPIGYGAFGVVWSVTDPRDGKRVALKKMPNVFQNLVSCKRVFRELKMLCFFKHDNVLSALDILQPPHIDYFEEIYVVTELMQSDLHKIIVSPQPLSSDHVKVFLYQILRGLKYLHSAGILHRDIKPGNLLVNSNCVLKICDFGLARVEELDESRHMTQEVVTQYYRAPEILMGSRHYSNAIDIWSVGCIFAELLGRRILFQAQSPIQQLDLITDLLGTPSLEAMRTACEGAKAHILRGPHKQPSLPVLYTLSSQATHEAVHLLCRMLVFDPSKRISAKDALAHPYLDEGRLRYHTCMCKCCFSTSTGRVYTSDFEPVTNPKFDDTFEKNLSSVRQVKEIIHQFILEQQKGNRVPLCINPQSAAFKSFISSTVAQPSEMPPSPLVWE
The assay is described as follows: Inhibition of human NLK assessed as enzyme activity at 1 uM using myelin basic protein as substrate preincubated for 20 mins followed by [gamma-33P]-ATP addition and measured after 120 mins by radiometric Hot-SpotSM Kinase assay relative to control.

The target of assay [7] is Cyclin-dependent kinase 4/cyclin D1 (Homo sapiens) (UniProt P11802+P24385). The experiment in a line: Inhibition of human CDK4/cyclin D1 assessed as enzyme activity at 1 uM using RB Protein as substrate preincubated for 20 mins followed by [gamma-33P]-ATP addition and measured after 120 mins by radiometric Hot-SpotSM Kinase assay relative to control. It is filed as protein-complex assay.

As for `C[C@H](Nc1ncnc2nc[nH]c12)c1cc2cccc(Cl)c2c(=O)n1-c1ccccc1`, the Activity in assay [1] came out at 110%; in assay [2] it was 95.9%; in assay [3], 90.7%; in assay [4], 96.5%; in assay [5] it was 107%; in assay [6], 96.2%. Further, the Activity in assay [7] worked out at 110%.
For the molecule `CC[C@H](Nc1ncnc2[nH]cnc12)c1nc2cccc(F)c2c(=O)n1-c1ccccc1`, the Activity in assay [1] was 98%; in assay [2] it was 99.8%; in assay [3], 92.8%; in assay [4], 102%; in assay [5] it was 103%; in assay [6], 103%. In assay [7], the Activity is 108%.
In the case of `CC(C)Oc1ccc(-c2nn([C@@H](C)c3oc4ccc(F)cc4c(=O)c3-c3cccc(F)c3)c3ncnc(N)c23)cc1F` [UMBRALISIB], the Activity was 101% in assay [1]; 90.3% in assay [2]; 92.9% in assay [3]; 97.8% in assay [4]; 116% in assay [5]; 98.3% in assay [6]. Besides, the Activity in assay [7] was determined as 104%.
